Data set [1] has as its system WT male C57Bl/6J mice. The experiment in a line: Long-term in vivo exposure to low-dose (R,R)-1,12-Me2Spm in mice. Conditions: WT male C57Bl/6J mice (FIG. 2). An excerpt:
Without wishing to be bound to any one particular theory, it is thought that inhibiting polyamine biosynthesis will enhance uptake of 1,12-Me2Spm and/or reduce the dose necessary for spermidine reduction.

Data set [2] deals with SRS fibroblast lines. The experiment in a line: Proliferation of SRS fibroblast lines cotreated with DFMO and Me2Spm. Conditions: cotreated with DFMO and Me2Spm for 96 h (FIG. 4C). It counts as cell-based. The method, then:
(FIG. 4B) DFMO cooperates with Me2Spm in improving SPD/SPM ratio, indicated by numbers above columns. […] In FIG. 4A and FIG. 4B, SRS patient-derived lymphoblastoid cells were pretreated with DFMO followed by 96-h cotreatment with DFMO and Me2Spm. SRS fibroblast lines in FIG. 4C were cotreated with DFMO and Me2Spm for 96 h;

For data set [3] the following is noted: shown previously (Murray Stewart et al., 2020); cited from earlier work.
The test system of data set [4] is SRS cells. The experiment in a line: Treatment of SRS cells with AdoDATO (polyamine levels). Conditions: SRS cells (FIG. 6). It counts as cell-based.
Data set [5] deals with T1, spermidine synthase (SRM) (Homo sapiens, UniProt P19623).
T1 sequence (P19623 1-302): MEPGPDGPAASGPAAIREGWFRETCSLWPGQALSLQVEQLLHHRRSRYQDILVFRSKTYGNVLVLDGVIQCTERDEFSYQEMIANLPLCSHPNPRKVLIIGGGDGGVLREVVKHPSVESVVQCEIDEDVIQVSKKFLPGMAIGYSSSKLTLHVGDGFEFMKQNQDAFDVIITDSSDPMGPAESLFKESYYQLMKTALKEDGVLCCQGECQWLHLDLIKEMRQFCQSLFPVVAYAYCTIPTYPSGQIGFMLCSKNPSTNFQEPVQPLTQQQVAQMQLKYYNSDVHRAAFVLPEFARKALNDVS
The data set is described as follows: Inhibition of spermidine synthase.

Data set [6] relates to SRS patient-derived cell lines. The experiment in a line: Response of SRS patient-derived cell lines to DFMO (conversion of SPD to SPM). It is filed as cell-based.
In data set [7] the test system is SRS patient-derived lymphoblastoid cells. The experiment in a line: Polyamine levels in SRS patient-derived lymphoblastoid cells treated with DFMO and Me2Spm. Conditions: DFMO pretreatment followed by 96-h cotreatment (FIG. 4A). It counts as cell-based.
The subject of data set [8] is SRS cells with a complete loss-of-function mutation in SMS. The experiment in a line: Response to DFMO of SRS cells with complete loss-of-function mutation in SMS. It is filed as cell-based. The following applies: response to DFMO (FIG. 5E). An excerpt: (§1) FIG. 5A, FIG. 5B, FIG. 5C, FIG. 5D, and FIG. 5E show potential therapeutic targets and molecules in the response of SRS cells to DFMO.

Data set [9] has as its system children. Conditions: Phase 2 preventative trials in pediatric neuroblastoma; ODC1/Bachmann-Bupp trials; cited from earlier work.
Data set [10] has as its system SAMDC. The data set is described as follows: SAMDC activity in SRS cells treated with DFMO. It is filed as cell-based. The following applies: FIG. 5C.
Description: as §1

Regarding `C[C@@H](N)CCNCCCCNCC[C@@H](C)N` [(R,R)-1,12-dimethylspermine], in [1], the SPD/SPM ratio result is on record as “improves the SPD/SPM ratio” and the “toxicity of long-term in vivo exposure” value was “nontoxic”. In addition, the “rescue of DFMO-mediated growth inhibition” value in data set [2] was “rescues DFMO-mediated growth inhibition”. In addition, in data set [3], the metabolic stability result is listed as “metabolically stable”.
Consider `NCCCCC[S+](CCN)CC1OC(n2cnc3c(N)ncnc32)C(O)C1O` (stereo not drawn) [AdoDATO, S-adenosyl-1,8-diamino-3-thio-octane], for which, in data set [4], the SPD/SPM ratio result is on record as “improves the SPD/SPM ratio” and the levels of putrescine entry is “maintaining levels of putrescine”. The “inhibition of spermidine synthase (SRM)” value in data set [5] was “inhibits spermidine synthase (SRM)”.
`N=C(N)c1cccc2c1CC/C2=N\N=C(N)N` [CGP48664]: the “conversion to SPM on cotreatment with DFMO” value in data set [6] (cotreatment of DFMO with SAMDC inhibitor (FIG. 5D)) was “prevents the conversion to SPM”.
For difluoromethylornithine [DFMO], in [7], the “uptake of Me2Spm” value is reported as “increases uptake of Me2Spm”. The levels of putrescine entry in data set [4] is “depletes”. In addition, the “conversion of SPD to SPM” value was “do not convert SPD to SPM” in [8] and “enhances conversion of SPD to SPM” in [6] (hypomorphic SRS cells (FIG. 5A)). Also, the safety in children result in [9] is recorded as “safe in children”. In addition, the SPD/SPM ratio result in data set [6] (SRS patient-derived cell lines (FIG. 5B)) was “correction of the SPD/SPM ratio”. In [10], the SAMDC activity result is listed as “induces SAMDC activity”.

The record behind these values is US20260248744A1, “USE OF NON-TOXIC POLYAMINE ANALOGUES AND/OR INHIBITORS OF POLYAMINE BIOSYNTHESIS TO RE-BALANCE NATURAL POLYAMINE LEVELS IN SNYDER-ROBINSON SYNDROME AND RELATED DISORDERS” (The Johns Hopkins University, priority 2022, published 2026).
